Results: ChEMBL document CHEMBL1697731, “Cheminformatics analysis of assertions mined from literature that describe drug-induced liver injury in different species” (Chem Res Toxicol, 2010)

Tests used:
[1] = system: Hepatotoxicity; experiment: Literature-mined compound from Fourches et al multi-species drug-induced liver injury (DILI) dataset, effect in humans; conditions: human
[2] = system: Hepatotoxicity; experiment: Literature-mined compound from Fourches et al multi-species drug-induced liver injury (DILI) dataset, effect in non-rodents
[3] = system: Hepatotoxicity; experiment: Literature-mined compound from Fourches et al multi-species drug-induced liver injury (DILI) dataset, effect in rodents; conditions: rodentia

Row | SMILES | Hepatotoxicity [1] | Hepatotoxicity [2] | Hepatotoxicity [3] | Hepatotoxicity ([1]; Liver) | Hepatotoxicity ([2]; Liver) | Hepatotoxicity ([3]; Liver)
1 | Nc1nnc(-c2cccc(Cl)c2Cl)c(N)n1 [LAMOTRIGINE] | drug-induced liver injury reported | no drug-induced liver injury reported | no drug-induced liver injury reported | – | – | –
2 | CC(C)[C@@H]1NC(=O)[C@H](CCCCN)NC(=O)[C@@H](Cc2c[nH]c3ccccc23)NC(=O)[C@H](Cc2ccc(O)cc2)NC(=O)[C@@H](NC(=O)[C@H](N)Cc2ccc3ccccc3c2)CSSC[C@@H](C(=O)N[C@H](C(N)=O)[C@@H](C)O)NC1=O [LANREOTIDE] | drug-induced liver injury reported | no drug-induced liver injury reported | no drug-induced liver injury reported | – | – | –
3 | Cc1c(OCC(F)(F)F)ccnc1C[S+]([O-])c1nc2ccccc2[nH]1 (stereo unspecified) [LANSOPRAZOLE] | drug-induced liver injury reported | no drug-induced liver injury reported | no drug-induced liver injury reported | – | – | –
4 | CC1(C)CCC2=C(O1)c1ccccc1C(=O)C2=O [LAPACHONE] | drug-induced liver injury reported | no drug-induced liver injury reported | no drug-induced liver injury reported | – | – | –
5 | Cc1oncc1C(=O)Nc1ccc(C(F)(F)F)cc1 [LEFLUNOMIDE] | drug-induced liver injury reported | no drug-induced liver injury reported | drug-induced liver injury reported | – | – | –
6 | Nc1nc2c(c(=O)[nH]1)N(C=O)C(CNc1ccc(C(=O)N[C@@H](CCC(=O)O)C(=O)O)cc1)CN2 (stereo partly specified) [LEUCOVORIN] | drug-induced liver injury reported | no drug-induced liver injury reported | drug-induced liver injury reported | – | – | –
7 | c1ccc([C@H]2CN3CCSC3=N2)cc1 [LEVAMISOLE] | – | – | – | drug-induced liver injury reported | no drug-induced liver injury reported | drug-induced liver injury reported
8 | N[C@@H](Cc1ccc(O)c(O)c1)C(=O)O [LEVODOPA] | drug-induced liver injury reported | no drug-induced liver injury reported | drug-induced liver injury reported | – | – | –
9 | C[C@H]1COc2c(N3CCN(C)CC3)c(F)cc3c(=O)c(C(=O)O)cn1c23.C[C@H]1COc2c(N3CCN(C)CC3)c(F)cc3c(=O)c(C(=O)O)cn1c23.O [LEVOFLOXACIN] | drug-induced liver injury reported | no drug-induced liver injury reported | no drug-induced liver injury reported | – | – | –
10 | C[C@@H]1CC(=O)NN=C1c1ccc(NN=C(C#N)C#N)cc1 [LEVOSIMENDAN] | no drug-induced liver injury reported | drug-induced liver injury reported | no drug-induced liver injury reported | – | – | –
11 | N[C@@H](Cc1cc(I)c(Oc2cc(I)c(O)c(I)c2)c(I)c1)C(=O)O [LEVOTHYROXINE] | drug-induced liver injury reported | drug-induced liver injury reported | drug-induced liver injury reported | – | – | –
12 | CCN(CC)CC(=O)Nc1c(C)cccc1C [LIDOCAINE] | – | – | – | drug-induced liver injury reported | drug-induced liver injury reported | drug-induced liver injury reported
13 | N[C@@H](Cc1cc(I)c(Oc2ccc(O)c(I)c2)c(I)c1)C(=O)O [LIOTHYRONINE] | drug-induced liver injury reported | no drug-induced liver injury reported | drug-induced liver injury reported | – | – | –
14 | NCCCC[C@H](N[C@@H](CCc1ccccc1)C(=O)O)C(=O)N1CCC[C@H]1C(=O)O [LISINOPRIL ANHYDROUS] | drug-induced liver injury reported | no drug-induced liver injury reported | drug-induced liver injury reported | – | – | –
15 | CN(CCCN1c2ccccc2CCc2ccccc21)CC(=O)c1ccc(Cl)cc1 [LOFEPRAMINE] | drug-induced liver injury reported | no drug-induced liver injury reported | no drug-induced liver injury reported | – | – | –
16 | O=NN(CCCl)C(=O)NC1CCCCC1 [LOMUSTINE] | drug-induced liver injury reported | no drug-induced liver injury reported | drug-induced liver injury reported | – | – | –
17 | CN(C)C(=O)C(CCN1CCC(O)(c2ccc(Cl)cc2)CC1)(c1ccccc1)c1ccccc1 [LOPERAMIDE] | no drug-induced liver injury reported | no drug-induced liver injury reported | drug-induced liver injury reported | – | – | –
18 | Cc1cccc(C)c1OCC(=O)N[C@@H](Cc1ccccc1)[C@@H](O)C[C@H](Cc1ccccc1)NC(=O)[C@H](C(C)C)N1CCCNC1=O [LOPINAVIR] | drug-induced liver injury reported | no drug-induced liver injury reported | no drug-induced liver injury reported | – | – | –
19 | CN1C(C(=O)Nc2ccccn2)=C(O)c2sc(Cl)cc2S1(=O)=O [LORNOXICAM] | drug-induced liver injury reported | no drug-induced liver injury reported | no drug-induced liver injury reported | – | – | –

Row | SMILES | Hepatotoxicity [1] | Hepatotoxicity [2] | Hepatotoxicity [3] | Hepatotoxicity ([1]; Liver) | Hepatotoxicity ([2]; Liver) | Hepatotoxicity ([3]; Liver)
20 | CCCCc1nc(Cl)c(CO)n1Cc1ccc(-c2ccccc2-c2nn[nH]n2)cc1 [LOSARTAN] | drug-induced liver injury reported | no drug-induced liver injury reported | drug-induced liver injury reported | – | – | –
21 | CCOC(=O)CC(SP(=S)(OC)OC)C(=O)OCC (stereo unspecified) [MALATHION] | no drug-induced liver injury reported | no drug-induced liver injury reported | drug-induced liver injury reported | – | – | –
22 | CC(C)OC(=O)C(C(=O)OC(C)C)=C1SC=CS1 [MALOTILATE] | drug-induced liver injury reported | no drug-induced liver injury reported | drug-induced liver injury reported | – | – | –
23 | OC[C@@H](O)[C@@H](O)[C@H](O)[C@H](O)CO [MANNITOL] | drug-induced liver injury reported | drug-induced liver injury reported | drug-induced liver injury reported | – | – | –
24 | C#C[C@]1(O)CC[C@H]2[C@@H]3CCC4=CCCC[C@@H]4[C@H]3C(=C)C[C@@]21CC.C#C[C@]1(O)CC[C@H]2[C@@H]3CCc4cc(O)ccc4[C@H]3CC[C@@]21C [MARVELON] | drug-induced liver injury reported | no drug-induced liver injury reported | no drug-induced liver injury reported | – | – | –
25 | OC1(c2ccc(Cl)cc2)c2ccccc2C2=NCCN21 (stereo unspecified) [MAZINDOL] | no drug-induced liver injury reported | no drug-induced liver injury reported | drug-induced liver injury reported | – | – | –
26 | COC(=O)Nc1nc2ccc(C(=O)c3ccccc3)cc2[nH]1 [MEBENDAZOLE] | drug-induced liver injury reported | drug-induced liver injury reported | no drug-induced liver injury reported | – | – | –
27 | CCC(C)C(C)(COC(N)=O)COC(N)=O (stereo unspecified) [MEBUTAMATE] | no drug-induced liver injury reported | no drug-induced liver injury reported | drug-induced liver injury reported | – | – | –
28 | Cc1cccc(CN2CCN(C(c3ccccc3)c3ccc(Cl)cc3)CC2)c1 (stereo unspecified) [MECLIZINE] | no drug-induced liver injury reported | no drug-induced liver injury reported | drug-induced liver injury reported | – | – | –
29 | CN(C)CCOC(=O)COc1ccc(Cl)cc1 [MECLOFENOXATE] | no drug-induced liver injury reported | no drug-induced liver injury reported | drug-induced liver injury reported | – | – | –
30 | Cc1cccc(C(C)c2cnc[nH]2)c1C (stereo unspecified) [MEDETOMIDINE] | – | – | – | drug-induced liver injury reported | drug-induced liver injury reported | no drug-induced liver injury reported
31 | CC(=O)O[C@]1(C(C)=O)CC[C@H]2[C@@H]3C[C@H](C)C4=CC(=O)CC[C@]4(C)[C@H]3CC[C@@]21C [MEDROXYPROGESTERONE ACETATE] | no drug-induced liver injury reported | no drug-induced liver injury reported | drug-induced liver injury reported | – | – | –
32 | Cc1cccc(Nc2ccccc2C(=O)O)c1C [MEFENAMIC ACID] | – | – | – | drug-induced liver injury reported | no drug-induced liver injury reported | drug-induced liver injury reported
33 | CC(=O)O[C@]1(C(C)=O)CC[C@H]2[C@@H]3C=C(C)C4=CC(=O)CC[C@]4(C)[C@H]3CC[C@@]21C [MEGESTROL ACETATE] | drug-induced liver injury reported | no drug-induced liver injury reported | drug-induced liver injury reported | – | – | –
34 | CNC[C@H](O)[C@@H](O)[C@H](O)[C@H](O)CO [MEGLUMINE] | drug-induced liver injury reported | no drug-induced liver injury reported | no drug-induced liver injury reported | – | – | –
35 | Cc1cnc(NC(=O)C2=C(O)c3ccccc3S(=O)(=O)N2C)s1 [MELOXICAM] | drug-induced liver injury reported | no drug-induced liver injury reported | no drug-induced liver injury reported | – | – | –
36 | CC1=CC(=O)c2ccccc2C1=O [MENADIONE] | drug-induced liver injury reported | drug-induced liver injury reported | drug-induced liver injury reported | – | – | –
37 | CC1CCC(C(C)C)C(O)C1 (stereo unspecified) [MENTHOL] | drug-induced liver injury reported | no drug-induced liver injury reported | no drug-induced liver injury reported | – | – | –
